Results published in patent US20180207113A1, “VIVO INTRACELLULAR REPROGRAMMING COMPOSITION AND METHOD OF MAKING AND USING SAME” (priority 2017, published 2018).

Legend:
[1] = system: C. elegans; experiment: C. elegans lifespan; type: in vivo
Text: Urolithins extend lifespan and improve fitness in C. elegans.

[2] = system: C. elegans; experiment: Mitochondrial function with age in C. elegans; type: in vivo
[3] = system: C. elegans; experiment: Activity and fitness during aging in C. elegans (mobility, pharyngeal pumping); type: in vivo
[4] = system: mitophagy; experiment: Induction of mitophagy in vitro and in vivo; settings: in vitro and in vivo following oral consumption

Row | SMILES | lifespan [1] | mortality observed at advanced ages ([1]; at 50 μM) | dose-response effect on lifespan ([1]; concentrations increased from 10 to 50 μM) | accumulation of dysfunctional mitochondria with age [2] | mitochondrial respiratory capacity ([2]; during aging) | normal activity during aging, including mobility and pharyngeal pumping [3] | induction of mitophagy [4] | effect on lifespan ([1]; at the same concentration (not given))
1 | O=c1oc2cc(O)ccc2c2ccc(O)cc12 [UA, urolithin A] | extended lifespan | significantly delayed the mortality | clear dose-response effect | prevented the accumulation of dysfunctional mitochondria with age | maintaining mitochondrial respiratory capacity | prolonged normal activity during aging | induces mitophagy both in vitro and in vivo | 
2 | O=c1oc2c(O)c(O)cc3c(=O)oc4c(O)c(O)cc1c4c23 [EA] |  |  |  |  |  |  |  | no effect on lifespan
